Measured values as given in PubChem BioAssay (NCI).
Several values for one entry are separate records, joined by “and”; a condition that tells them apart may be missing. Equal values may be shown once.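 Compound exposure: 48 hours, 5 concentrations, 96-well plates. Abbreviation: GI50, concentration required for 50% inhibition of growth. TGI marks complete inhibition of growth.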

Experiments:
Test in all cases: NCI anticancer screen, dose series, 48 h
[1] = test system: A549 NSCLC
[2] = test system: HCT-116 colon
[3] = test system: HOP-62 NSCLC
[4] = test system: IGROV1 ovarian
[5] = test system: K-562 leukemia
[6] = test system: MDA-MB-435
[7] = test system: SF-539 CNS
[8] = test system: SK-MEL-2 melanoma

CC1CCC2C(C)C3C(CC4C5CC=C6CC(OC7OC(CO)C(O)C(OC8OC(CO)C(O)C(O)C8O)C7OC7OC(C)C(O)C(O)C7O)CCC6(C)C5CCC43C)N2C1 (stereo not given)
GI50 [1]: > 2.5 µg/mL
TGI [1]: 16.7 µM and > 2.5 µg/mL
GI50 [2]: > 2.5 µg/mL
TGI [2]: 24.5 µM and > 2.5 µg/mL
GI50 [3]: > 2.5 µg/mL
TGI [3]: 32.2 µM and > 2.5 µg/mL
GI50 [4]: > 2.5 µg/mL
TGI [4]: 26.2 µM and > 2.5 µg/mL
GI50 [5]: > 2.5 µg/mL
TGI [5]: 54.4 µM and > 2.5 µg/mL
GI50 [6]: > 2.5 µg/mL
TGI [6]: 21 µM and > 2.5 µg/mL
TGI [7]: 23.8 µM
GI50 [8]: > 2.5 µg/mL
TGI [8]: 34.8 µM and > 2.5 µg/mL

CCCCSCc1nc2nc(Cl)c(Cl)nc2[nH]1
TGI [1]: > 100 µM
TGI [2]: 40.6 µM
TGI [3]: 42 µM
TGI [4]: > 100 µM
TGI [5]: 99.5 µM
TGI [6]: > 100 µM
TGI [7]: > 100 µM
TGI [8]: 43.3 µM

CC(F)(F)c1cc(F)ccc1-c1sc2cc(O)ccc2c1Oc1ccc(/C=C/C(=O)O)cc1
GI50 [1]: 10.3 µM
TGI [1]: 29.9 µM
GI50 [2]: 8.48 µM
TGI [2]: 22.1 µM
GI50 [3]: 9.03 µM
TGI [3]: 26.8 µM
GI50 [4]: 11.6 µM
TGI [4]: 29 µM
GI50 [5]: 6.7 µM
TGI [5]: 79.2 µM
GI50 [6]: 2.23 µM
TGI [6]: 5.51 µM
GI50 [7]: 5.95 µM
TGI [7]: 21 µM
GI50 [8]: 4.43 µM
TGI [8]: 20.8 µM

Cc1ccc2[nH]c(C(=O)NN3C(=O)CSC34CCCC(C)C4)c(-c3ccccc3)c2c1 (stereo not given)
GI50 [1]: 15.2 µM
TGI [1]: 30.5 µM
GI50 [2]: 14.6 µM
TGI [2]: 31 µM
GI50 [3]: 19.2 µM
TGI [3]: 35.1 µM
GI50 [4]: 0.0485 µM
TGI [4]: 12 µM
GI50 [5]: 12.7 µM
TGI [5]: 39.2 µM
GI50 [6]: 18 µM
TGI [6]: 34.8 µM
GI50 [7]: 21 µM
TGI [7]: 39.4 µM
GI50 [8]: 9.12 µM
TGI [8]: 23.1 µM

O=C(NCCCNC(=O)OCc1ccc2c(Br)cc(Br)c(O)c2n1)OCc1ccc2c(Br)cc(Br)c(O)c2n1
GI50 [1]: > 100 µM
TGI [1]: > 100 µM
GI50 [2]: > 100 µM
TGI [2]: > 100 µM
GI50 [3]: > 100 µM
TGI [3]: > 100 µM
GI50 [4]: > 100 µM
TGI [4]: > 100 µM
GI50 [5]: > 100 µM
TGI [5]: > 100 µM
GI50 [6]: > 100 µM
TGI [6]: > 100 µM
GI50 [7]: > 100 µM
TGI [7]: > 100 µM
GI50 [8]: > 100 µM
TGI [8]: > 100 µM

COc1cc(-c2nn(C(=O)NS(=O)(=O)c3ccc(C)cc3)cc2-c2ccncc2)ccc1Cl
GI50 [1]: 4.43 µM
TGI [1]: 35 µM
GI50 [2]: 5.63 µM
TGI [2]: 32.2 µM
GI50 [3]: 2.9 µM
TGI [3]: 10.8 µM
GI50 [4]: 5.1 µM
TGI [4]: > 100 µM
GI50 [6]: 5.6 µM
TGI [6]: 25.3 µM
GI50 [7]: 3.61 µM
TGI [7]: 14.7 µM
GI50 [8]: 4.65 µM
TGI [8]: 15.4 µM

COc1ccc(C2C(c3ccccc3)C(=O)N2c2cc(OC)c(OC)c(OC)c2)cc1I (stereo not given)
GI50 [1]: 0.479 µM
TGI [1]: > 100 µM
GI50 [2]: 0.343 µM
TGI [2]: 12.4 µM
GI50 [3]: 0.57 µM
TGI [3]: > 100 µM
GI50 [4]: 0.58 µM
TGI [4]: > 100 µM
GI50 [5]: 0.339 µM
TGI [5]: > 100 µM
GI50 [6]: 0.209 µM
TGI [6]: 0.644 µM
GI50 [7]: 0.234 µM
TGI [7]: 0.657 µM
GI50 [8]: 0.572 µM
TGI [8]: > 100 µM

O=C1C(Cl)=C(Nc2cccc(C(F)(F)F)c2)C(=O)N1Cc1ccccc1Cl
GI50 [1]: 7.68 µM
TGI [1]: 27.5 µM
GI50 [2]: 1.25 µM
TGI [2]: 5.27 µM
GI50 [3]: 12.6 µM
TGI [3]: 25.4 µM
GI50 [4]: 0.186 µM
TGI [4]: 11.2 µM
GI50 [5]: 4.36 µM
TGI [5]: 26.5 µM
GI50 [6]: 2.49 µM
TGI [6]: 12.2 µM
GI50 [7]: 1.91 µM
TGI [7]: 10.7 µM
GI50 [8]: 4.08 µM
TGI [8]: 19.8 µM

COc1cc(OC)c(OC)cc1/C=C1\C=Cc2ccccc21
TGI [1]: > 100 µM
TGI [2]: 21.9 µM
TGI [3]: 37.5 µM
TGI [4]: > 100 µM
TGI [5]: > 100 µM
TGI [6]: 14.5 µM
TGI [7]: 35.8 µM

COc1ccccc1CNC(=O)C1c2ccccc2C(=O)N(CC(C)C)C1c1cccs1 (stereo not given)
GI50 [2]: 15.3 µM
TGI [2]: 77.6 µM
GI50 [3]: 40.7 µM
TGI [3]: > 100 µM
GI50 [4]: 22.4 µM
TGI [4]: > 100 µM
GI50 [5]: 20.3 µM
TGI [5]: > 100 µM
GI50 [6]: 16.8 µM
TGI [6]: 39.3 µM
GI50 [7]: 16.9 µM
TGI [7]: 33.8 µM
GI50 [8]: 16.6 µM
TGI [8]: 36.9 µM

COc1ccc(OC)c(-c2cc(-c3ccccc3)nn2-c2ccc(S(N)(=O)=O)cc2)c1
GI50 [1]: 13.1 µM
TGI [1]: 42.6 µM
GI50 [4]: 23.3 µM
TGI [4]: > 100 µM
GI50 [5]: 2.68 µM
TGI [5]: 6.38 µM
GI50 [6]: 6.73 µM
TGI [6]: 24.8 µM
GI50 [7]: 18.7 µM
TGI [7]: 36.6 µM
GI50 [8]: 27.5 µM
TGI [8]: > 100 µM

CCOC(=O)c1cc2cc(NC(=O)c3cc4cc([N+](=O)[O-])ccc4n3C)ccc2n1C
GI50 [1]: 21.7 µM
TGI [1]: 55.6 µM
GI50 [2]: 14.6 µM
TGI [2]: 30.3 µM
GI50 [3]: 19.7 µM
TGI [3]: 35.3 µM
GI50 [4]: > 100 µM
TGI [4]: > 100 µM
GI50 [5]: 59.1 µM
TGI [5]: > 100 µM
GI50 [6]: 60.9 µM
TGI [6]: > 100 µM
GI50 [8]: > 100 µM
TGI [8]: > 100 µM

CC1CCCN(CC(O)CN2CCCc3ccccc32)C1 (stereo not given)
TGI [1]: > 100 µM
TGI [2]: > 100 µM
TGI [3]: > 100 µM
TGI [4]: > 100 µM
TGI [5]: > 100 µM
TGI [6]: > 100 µM
TGI [8]: > 100 µM

CCCCN(CCCC)CC(C)(C)C(O)c1ccc(OC)c2ccccc12 (stereo not given)
GI50 [1]: 11.1 µM
TGI [1]: 35.3 µM
GI50 [2]: 1.08 µM
TGI [2]: 10.8 µM
GI50 [3]: 6.5 µM
TGI [3]: 20.6 µM
GI50 [4]: 1.69 µM
TGI [4]: 14.1 µM
GI50 [5]: 2.51 µM
TGI [5]: 13.6 µM
GI50 [6]: 5.05 µM
TGI [6]: 28.6 µM
GI50 [8]: 5.11 µM
TGI [8]: 17.7 µM

C#CCOc1ccc2ncnc(Nc3ccc(NC(=O)CCl)cc3)c2c1
GI50 [1]: 13.4 µM
TGI [1]: 39.7 µM
GI50 [2]: 3.68 µM
TGI [2]: 14.9 µM
GI50 [3]: 13.8 µM
TGI [3]: 37.1 µM
GI50 [4]: 3.15 µM
TGI [4]: 10.9 µM
GI50 [6]: 2.67 µM
TGI [6]: > 100 µM
GI50 [7]: 2.89 µM
TGI [7]: 10.6 µM
GI50 [8]: 12.6 µM
TGI [8]: 57.3 µM

COc1cc2nc(-c3ccc(-n4cncc4-c4ccc(N)cc4)cc3)sc2c(OC)c1OC
GI50 [1]: 3.14 µM
TGI [1]: 32.5 µM
GI50 [2]: 3.81 µM
TGI [2]: > 100 µM
GI50 [4]: 2.63 µM
TGI [4]: 20.2 µM
GI50 [7]: 7.14 µM
TGI [7]: > 100 µM

COc1cccc(Cn2cc3c(c2)-c2oncc2CC3)c1
GI50 [1]: 0.559 µM
TGI [1]: > 56.1 µM
GI50 [2]: 0.43 µM
TGI [2]: 29.4 µM
GI50 [3]: 0.528 µM
TGI [3]: > 100 µM
GI50 [4]: 0.801 µM
TGI [4]: > 100 µM
GI50 [5]: 0.315 µM
TGI [5]: > 100 µM
GI50 [6]: 0.0769 µM
TGI [6]: 0.327 µM
GI50 [7]: 0.266 µM
